{"source": "patent US20220047773A1", "about": "“SELF-ELIMINATING COATINGS” (Interface Biologics, Inc., priority 2007, published 2022)", "assay": "Partitioning in 1-octanol/PBS system", "format": "physicochemical", "experimental": "The partitioning of Compounds synthesized in Examples 1-13 was measured in a 1-octanol/PBS system. The partitioning correlates with the lipophilicity of the Compounds, and is used to predict the adsorption and distribution of Compounds under investigation. 1-octanol and PBS were thoroughly mixed to provide PBS-saturated 1-octanol in the top phase and 1-octanol-saturated PBS in the bottom phase. Solutions of Compounds 1, 2, 3, 6, 7, 8, 9, 10, 11, 12, 16, PTX, and SIBS (0.05 mL) were added to each vial of 1-octanol/PBS. The vials were rocked for 4 hours, ensuring good contact between the phases. An aliquot of the organic phase from each sample was then analyzed by GPC (THF mobile phase, RI), which had been calibrated using known concentrations of each compound. The area under the RI peak was used to estimate the concentration of each compound in the organic phase. The mass of each Compound was then used to calculate the weight percentage in organic phase by the following formula: (mass of Compound in 1-octanol phase/total mass)×100%. The partition coefficient was calculated according to the following formula: log([Compound in 1-octanol]/[Compound in PBS]). […]", "data": [{"smiles": "CC(=O)O[C@H]1C(=O)[C@@]2(C)[C@H]([C@H](OC(=O)c3ccccc3)[C@]3(O)C[C@H](OC(=O)[C@H](O)[C@@H](NC(=O)c4ccccc4)c4ccccc4)C(C)=C1C3(C)C)[C@]1(OC(C)=O)CO[C@@H]1C[C@@H]2O", "note": "[PTX, paclitaxel, reference compound]", "values": [{"measurement": "logD at 4 h", "value": 1}, {"measurement": "wt % in 1-octanol", "setting": "1-octanol/PBS, rocked 4 hours, GPC of organic phase", "value": 94, "unit": "%"}]}]}
